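Assay format: 96-well plates, 48-hour exposure. Here, GI50 denotes the concentration required for 50% inhibition of growth. The concentration for full growth arrest is given as TGI.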
Tests used:
Test in all cases: DTP human tumour cell line panel, 48 h
[1] = system: IGROV1 ovarian
[2] = system: NCI-H522 lung
[3] = system: RXF 393 renal
[4] = system: UACC-62 melanoma
[5] = system: HOP-62 NSCLC
[6] = system: ACHN renal
[7] = system: SF-268 CNS
[8] = system: HOP-92 NSCLC
[9] = system: PC-3 prostate
[10] = system: NCI/ADR-RES ovarian

Row | Structure (SMILES) | GI50 [1] [µM] | TGI [1] [µM] | GI50 [2] [µM] | TGI [2] [µM] | GI50 [3] [µM] | TGI [3] [µM] | GI50 [4] [µM] | TGI [4] [µM] | GI50 [5] [µM] | TGI [5] [µM] | GI50 [6] [µM] | TGI [6] [µM] | GI50 [7] [µM] | TGI [7] [µM] | GI50 [8] [µM] | TGI [8] [µM] | GI50 [9] [µM] | TGI [9] [µM] | GI50 [10] [µM] | TGI [10] [µM]
1 | C1COCCN1.C1COCCN1.N.N.[Cl-].[Pt+2] | > 100 | > 100 | > 100 | > 100 | > 100 | > 100 | > 100 | > 100 |  |  |  |  |  |  |  |  |  |  |  | 
2 | COc1ccc(/C=C/C=C(/C#N)C(N)=S)cc1 | 28.3 | > 100 | 26.1 | 58.3 | 14 | 30.1 | 19.3 | 37.9 | 29.8 | 94.9 | 24.6 | 49.9 | 28 | > 100 |  |  |  |  |  | 
3 | CCCCCCCCCCCCC(=O)OC(c1cnco1)c1nc(C(O)CC(O)C(O)C(C)O)co1 (centres undefined) | 1.71 | > 100 | 3.18 | > 25.1 | 0.486 | 64.2 | 0.896 | 2.87 |  | > 100 | 6.38 | > 71.9 | 4.56 | > 47.3 | 1.62 | > 100 |  |  |  | 
4 | N#CC1(c2nc3ccccc3o2)C(=O)C(=O)N(C2C3CC4CC(C3)CC2C4)C(=O)C1=O (centres undefined) |  | > 100 |  | > 100 |  | > 100 |  | > 100 |  | > 100 |  | > 100 |  | > 100 |  | > 100 |  |  |  | 
5 | Cc1cc2c(cc1C)[n+](=O)c(C(=O)C/C(=N/NC(=O)c1ccccc1O)C(=O)Nc1ccccc1C(C)C)c(C)n2[O-] |  | > 100 |  | > 100 |  | > 100 |  | > 100 |  | > 100 |  | > 100 |  | > 100 |  |  |  |  |  | 
6 | O=C(CCN1CCN(c2cnc3ccccc3n2)CC1)c1csc2ccccc12 |  |  | 18.4 | 42.8 | 18.7 | 49.5 | 49.5 | > 100 | 58.6 | > 100 | 19.5 | 42.1 | > 100 | > 100 | 18.9 | 49.1 | 28.1 | > 100 | > 100 | > 100
7 | CCOC(=O)C1=C(C)Nc2ccccc2S1 |  | > 100 |  | > 100 |  | > 100 |  | > 100 |  | > 100 |  | > 100 |  | > 100 |  | > 100 |  |  |  | 
8 | O=C(c1ccc2ccccc2c1)c1c(C(F)(F)F)n([O-])c2cc(Cl)c(Cl)cc2[n+]1=O | 1.3 | 2.56 | 1.49 | 2.81 | 1.6 | 3.04 | 1.61 | 2.96 | 1.64 | 3.03 | 1.59 | 2.94 | 1.85 | 3.96 | 1.55 | 3.18 |  |  | 1.8 | 3.95
9 | CNC(=O)c1ccccc1CC1(O)c2ccccc2Oc2ccccc21 | 26.4 | > 100 | 8.39 | 37.3 |  |  | 10.4 | 52.6 | 17.2 | 74.5 | 26.2 | > 100 | 24.2 | 85.9 | 7.52 | 44.4 | 13.1 | 99.3 | 10.1 | 86.9

Source: PubChem BioAssay (NCI)
